ChEMBL document CHEMBL1909046, “DrugMatrix in vitro pharmacology data”

How the values were obtained:
[1] = biological target: T1, Alpha-1B adrenergic receptor (Rattus norvegicus, UniProt P15823); assay: DRUGMATRIX: Alpha-1B adrenergic receptor radioligand binding (ligand: prazosin); format: cell membranes, Wistar, Liver, Membrane; settings: Not Active = under 50% inhibition at 10 µM
T1 sequence (P15823 whole entry): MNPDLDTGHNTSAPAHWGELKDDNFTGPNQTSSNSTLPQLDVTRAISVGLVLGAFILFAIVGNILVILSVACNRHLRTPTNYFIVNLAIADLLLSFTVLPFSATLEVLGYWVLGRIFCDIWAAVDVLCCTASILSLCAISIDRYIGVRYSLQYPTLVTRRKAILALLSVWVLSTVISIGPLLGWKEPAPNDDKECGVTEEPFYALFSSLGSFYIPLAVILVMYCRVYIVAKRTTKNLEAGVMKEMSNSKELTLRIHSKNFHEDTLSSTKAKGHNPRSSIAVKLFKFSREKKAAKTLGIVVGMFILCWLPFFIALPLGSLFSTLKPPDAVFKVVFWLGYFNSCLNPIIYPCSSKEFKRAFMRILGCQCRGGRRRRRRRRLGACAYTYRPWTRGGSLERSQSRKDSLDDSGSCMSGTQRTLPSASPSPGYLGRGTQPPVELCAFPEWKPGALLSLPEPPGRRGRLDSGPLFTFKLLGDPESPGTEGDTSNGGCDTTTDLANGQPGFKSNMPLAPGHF

[2] = DRUGMATRIX: ATPase, Na+/K+ enzyme inhibition (substrate: ATP); format: tissue-based, Sus scrofa, Heart; settings: Not Active = under 50% inhibition at 10 µM
Calcitonin receptor = biological target: T2, Calcitonin receptor (Homo sapiens, UniProt P30988); format: cell membranes, Membrane; settings: t47d; note: in other assays of this panel Not Active means under 50% inhibition at 10 µM
T2 sequence (P30988 whole entry): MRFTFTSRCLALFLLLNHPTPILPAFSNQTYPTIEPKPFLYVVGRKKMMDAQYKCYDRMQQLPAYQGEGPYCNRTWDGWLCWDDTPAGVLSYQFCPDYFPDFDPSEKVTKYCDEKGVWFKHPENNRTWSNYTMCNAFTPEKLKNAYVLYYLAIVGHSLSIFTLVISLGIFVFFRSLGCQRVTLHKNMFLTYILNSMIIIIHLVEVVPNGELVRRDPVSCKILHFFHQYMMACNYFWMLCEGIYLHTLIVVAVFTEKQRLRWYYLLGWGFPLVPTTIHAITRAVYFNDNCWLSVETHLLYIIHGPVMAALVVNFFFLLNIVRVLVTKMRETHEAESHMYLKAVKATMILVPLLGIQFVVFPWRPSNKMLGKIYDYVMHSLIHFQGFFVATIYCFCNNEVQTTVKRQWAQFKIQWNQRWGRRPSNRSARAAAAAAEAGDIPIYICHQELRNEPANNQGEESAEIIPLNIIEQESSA

[3] = DRUGMATRIX: Calcium Channel Type L, Dihydropyridine radioligand binding (ligand: [3H] Nitrendipine); format: cell membranes, Rattus norvegicus, Wistar, Cerebral cortex, Membrane; settings: Not Active = under 50% inhibition at 10 µM
[4] = biological target: T3, 5-hydroxytryptamine receptor 2C (Homo sapiens, UniProt P28335); assay: DRUGMATRIX: Serotonin (5-Hydroxytryptamine) 5-HT2C radioligand binding (ligand: [3H] Mesulergine); format: cell membranes, CHO-K1, Membrane; settings: Not Active = under 50% inhibition at 10 µM
T3 sequence (P28335 whole entry): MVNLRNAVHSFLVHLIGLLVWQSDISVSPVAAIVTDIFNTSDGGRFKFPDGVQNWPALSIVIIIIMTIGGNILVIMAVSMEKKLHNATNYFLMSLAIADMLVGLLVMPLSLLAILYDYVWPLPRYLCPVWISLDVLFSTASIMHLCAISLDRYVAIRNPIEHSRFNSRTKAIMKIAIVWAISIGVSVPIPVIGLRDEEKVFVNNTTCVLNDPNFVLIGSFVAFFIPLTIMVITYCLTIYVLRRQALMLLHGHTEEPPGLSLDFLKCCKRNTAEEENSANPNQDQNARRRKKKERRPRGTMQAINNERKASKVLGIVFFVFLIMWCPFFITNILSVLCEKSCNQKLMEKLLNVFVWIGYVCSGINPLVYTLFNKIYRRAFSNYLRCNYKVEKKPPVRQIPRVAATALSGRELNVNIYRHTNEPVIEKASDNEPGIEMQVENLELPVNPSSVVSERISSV

[5] = biological target: Sigma non-opioid intracellular receptor 1 (Homo sapiens, UniProt Q99720); assay: DRUGMATRIX: Sigma1 radioligand binding (ligand: [3H] Haloperidol); format: cell membranes, Jurkat, Membrane; settings: Not Active = under 50% inhibition at 10 µM; for Ki: read-out: Ki
Sigma non-opioid intracellular receptor 1, sequence (Q99720 whole entry): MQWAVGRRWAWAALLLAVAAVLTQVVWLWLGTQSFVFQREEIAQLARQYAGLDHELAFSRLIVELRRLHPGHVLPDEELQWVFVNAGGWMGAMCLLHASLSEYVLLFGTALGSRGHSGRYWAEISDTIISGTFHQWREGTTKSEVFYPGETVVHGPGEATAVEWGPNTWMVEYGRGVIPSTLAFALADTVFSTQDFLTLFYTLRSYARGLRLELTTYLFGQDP

[6] = DRUGMATRIX: Tumor Necrosis Factor (TNF), Non-Selective radioligand binding (ligand: [125I] TNF-alpha); format: cell membranes, Membrane; settings: u-937; Not Active = under 50% inhibition at 10 µM
[7] = DRUGMATRIX: Calcium Channel Type L, Phenylalkylamine radioligand binding (ligand: [3H] (-)-Desmethoxyverapamil (D-888)); format: cell membranes, Rattus norvegicus, Wistar, Brain, Membrane; settings: Not Active = under 50% inhibition at 10 µM
[8] = DRUGMATRIX: GABAA, Muscimol, Central radioligand binding (ligand: [3H] Muscimol); format: cell membranes, Rattus norvegicus, Wistar, Brain, Membrane; settings: Not Active = under 50% inhibition at 10 µM
[9] = DRUGMATRIX: Phorbol Ester radioligand binding (ligand: [3H] PDBu); format: cell membranes, Mus musculus, ICR, Brain, Membrane; settings: Not Active = under 50% inhibition at 10 µM
[10] = biological target: Matrix metalloproteinase-9 (Homo sapiens, UniProt P14780); format: cell-based;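 note: inhibition of isolated MMP-9 enzyme activity toward a synthetic peptide substrate, from the DrugMatrix protease screening panel; in other assays of this panel Not Active means under 50% inhibition at 10 µM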
Matrix metalloproteinase-9, sequence (P14780 whole entry): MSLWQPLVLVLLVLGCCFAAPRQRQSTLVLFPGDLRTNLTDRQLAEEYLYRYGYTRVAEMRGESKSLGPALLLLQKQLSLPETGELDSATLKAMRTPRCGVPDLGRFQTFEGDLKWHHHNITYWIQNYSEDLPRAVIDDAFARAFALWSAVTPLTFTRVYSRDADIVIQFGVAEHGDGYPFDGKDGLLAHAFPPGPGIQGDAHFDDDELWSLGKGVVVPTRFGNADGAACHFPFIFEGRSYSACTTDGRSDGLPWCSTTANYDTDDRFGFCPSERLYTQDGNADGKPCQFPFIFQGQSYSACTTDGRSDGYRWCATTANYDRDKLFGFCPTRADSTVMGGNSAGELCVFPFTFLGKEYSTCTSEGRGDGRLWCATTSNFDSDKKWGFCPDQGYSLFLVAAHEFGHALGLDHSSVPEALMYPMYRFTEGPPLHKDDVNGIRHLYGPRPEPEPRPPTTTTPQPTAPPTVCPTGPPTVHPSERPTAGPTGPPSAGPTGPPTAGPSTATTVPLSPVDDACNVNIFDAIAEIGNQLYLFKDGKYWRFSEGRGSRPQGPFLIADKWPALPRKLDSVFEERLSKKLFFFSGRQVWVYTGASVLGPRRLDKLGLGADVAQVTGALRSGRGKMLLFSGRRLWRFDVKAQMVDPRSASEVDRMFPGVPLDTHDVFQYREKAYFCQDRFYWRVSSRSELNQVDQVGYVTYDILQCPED

Adenosine receptor A3 = biological target: T4, Adenosine receptor A3 (Homo sapiens, UniProt P0DMS8); format: cell membranes, CHO-K1, Membrane; settings: cho-k1;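 note: radioligand binding assay with AB-MECA serving as the labeled ligand; in other assays of this panel Not Active means under 50% inhibition at 10 µM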
T4 sequence (P0DMS8 whole entry): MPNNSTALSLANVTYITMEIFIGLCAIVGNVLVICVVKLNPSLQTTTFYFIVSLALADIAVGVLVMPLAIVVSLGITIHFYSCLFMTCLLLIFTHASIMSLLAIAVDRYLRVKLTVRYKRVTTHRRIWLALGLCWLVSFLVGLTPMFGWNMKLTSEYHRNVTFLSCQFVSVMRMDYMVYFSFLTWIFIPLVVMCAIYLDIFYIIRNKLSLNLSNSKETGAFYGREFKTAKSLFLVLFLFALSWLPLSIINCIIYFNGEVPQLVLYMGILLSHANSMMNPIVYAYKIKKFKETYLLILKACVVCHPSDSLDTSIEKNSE

Cytochrome P450 2C9 = Cytochrome P450 2C9 (Homo sapiens, UniProt P11712); settings: bti-tn-5b1-4; note: in other assays of this panel Not Active means under 50% inhibition at 10 µM
Cytochrome P450 2C9, sequence (P11712 whole entry): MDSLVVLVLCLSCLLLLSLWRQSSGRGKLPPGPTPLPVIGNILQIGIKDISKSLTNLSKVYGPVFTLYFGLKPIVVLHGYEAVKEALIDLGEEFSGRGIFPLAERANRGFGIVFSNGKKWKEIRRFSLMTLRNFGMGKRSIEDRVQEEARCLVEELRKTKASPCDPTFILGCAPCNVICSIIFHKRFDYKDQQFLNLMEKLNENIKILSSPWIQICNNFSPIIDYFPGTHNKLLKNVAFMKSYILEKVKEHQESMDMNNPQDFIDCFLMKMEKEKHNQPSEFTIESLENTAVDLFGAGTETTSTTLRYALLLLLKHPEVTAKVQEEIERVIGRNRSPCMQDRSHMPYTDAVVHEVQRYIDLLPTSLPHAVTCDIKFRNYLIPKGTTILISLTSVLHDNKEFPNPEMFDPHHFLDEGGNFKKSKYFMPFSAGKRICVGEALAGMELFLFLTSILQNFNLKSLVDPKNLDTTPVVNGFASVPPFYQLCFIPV

Cytochrome P450 2D6 = Cytochrome P450 2D6 (Homo sapiens, UniProt P10635); settings: bti-tn-5b1-4; note: in other assays of this panel Not Active means under 50% inhibition at 10 µM
Cytochrome P450 2D6, sequence (P10635 whole entry): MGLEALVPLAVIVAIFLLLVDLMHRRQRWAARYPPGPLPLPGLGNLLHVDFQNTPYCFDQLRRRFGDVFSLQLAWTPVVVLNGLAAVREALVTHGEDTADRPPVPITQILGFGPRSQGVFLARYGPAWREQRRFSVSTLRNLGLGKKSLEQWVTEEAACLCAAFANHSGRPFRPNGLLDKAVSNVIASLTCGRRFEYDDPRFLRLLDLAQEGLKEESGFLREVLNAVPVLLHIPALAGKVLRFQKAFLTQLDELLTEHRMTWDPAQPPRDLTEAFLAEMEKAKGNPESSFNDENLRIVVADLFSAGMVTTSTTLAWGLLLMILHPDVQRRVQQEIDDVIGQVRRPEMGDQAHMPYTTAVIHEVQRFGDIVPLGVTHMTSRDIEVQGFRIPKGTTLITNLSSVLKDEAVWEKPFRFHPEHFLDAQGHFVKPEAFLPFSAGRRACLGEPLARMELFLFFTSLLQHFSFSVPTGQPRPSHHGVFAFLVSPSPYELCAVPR

| Compound | IC50 [1] | IC50 [2] | Ki [2] | IC50 (Calcitonin receptor) | IC50 [3] | Ki [3] | IC50 ([4]; cho-k1) | IC50 ([5]; jurkat) | IC50 [6] | Ki [6] | IC50 [7] | Ki [7] | IC50 [8] | Ki [8] | IC50 [9] | Ki [9] | IC50 [10] | IC50 (Adenosine receptor A3) | IC50 (Cytochrome P450 2C9) | Ki (Cytochrome P450 2C9) | other results |
| --- | --- | --- | --- | --- | --- | --- | --- | --- | --- | --- | --- | --- | --- | --- | --- | --- | --- | --- | --- | --- | --- |
| COc1ccc2cc(CC(=O)O)ccc2c1 | Not Active | Not Active | Not Active | Not Active | Not Active | Not Active | Not Active | Not Active | Not Active | Not Active | Not Active | Not Active | Not Active | Not Active | Not Active | Not Active | Not Active | Not Active | Not Active | Not Active | IC50 (Cytochrome P450 2D6): Not Active; Ki (Cytochrome P450 2D6): Not Active |
| c1ccc2c(c1)cc1ccc3cccc4ccc2c1c34 | Not Active | Not Active | Not Active | Not Active | Not Active | Not Active | Not Active | Not Active | Not Active | Not Active | Not Active | Not Active | Not Active | Not Active | Not Active | Not Active | Not Active | Not Active | Not Active | Not Active | IC50 (Cytochrome P450 2D6): Not Active; Ki (Cytochrome P450 2D6): Not Active |
| CC(/C=C1\SC(=S)N(CC(=O)O)C1=O)=C\c1ccccc1 | Not Active | Not Active | Not Active | Not Active | Not Active | Not Active | Not Active | Not Active | Not Active | Not Active | Not Active | Not Active | Not Active | Not Active | Not Active | Not Active | Not Active | Not Active | Not Active | Not Active | IC50 (Cytochrome P450 2D6): Not Active; Ki (Cytochrome P450 2D6): Not Active |
| CCc1ccc(C(=O)C(C)CN2CCCCC2)cc1 (stereo not given) [EPERISONE] | Not Active | Not Active | Not Active | Not Active | Not Active | Not Active | Not Active | – | Not Active | Not Active | Not Active | Not Active | Not Active | Not Active | Not Active | Not Active | Not Active | Not Active | Not Active | Not Active | IC50 ([5]; read-out: IC50): 4.05 nM; Ki [5]: 1.7 nM |
| Oc1cccc2cccnc12 [OXYQUINOLINE] | Not Active | Not Active | Not Active | Not Active | Not Active | Not Active | Not Active | Not Active | Not Active | Not Active | Not Active | Not Active | Not Active | Not Active | Not Active | Not Active | Not Active | Not Active | – | – | IC50 (Cytochrome P450 2D6): Not Active; Ki (Cytochrome P450 2D6): Not Active |
| Fc1ccc([C@@H]2CCNC[C@H]2COc2ccc3c(c2)OCO3)cc1 [PAROXETINE] | Not Active | Not Active | Not Active | Not Active | – | – | Not Active | – | Not Active | Not Active | – | – | Not Active | Not Active | Not Active | Not Active | Not Active | Not Active | Not Active | Not Active | IC50 ([3]; read-out: IC50): 1480 nM; Ki ([3]; read-out: Ki): 949 nM; IC50 ([5]; read-out: IC50): 5370 nM; Ki [5]: 2260 nM; IC50 ([7]; read-out: IC50): 747 nM; Ki ([7]; read-out: Ki): 726 nM |
| CNC(=O)Oc1ccc2c(c1)[C@]1(C)CCN(C)[C@@H]1N2C [PHYSOSTIGMINE] | Not Active | Not Active | Not Active | Not Active | Not Active | Not Active | Not Active | Not Active | Not Active | Not Active | Not Active | Not Active | Not Active | Not Active | Not Active | Not Active | Not Active | Not Active | Not Active | Not Active | – |
| COc1ccc(CN(CCN(C)C)c2ccccn2)cc1 [PYRILAMINE] | Not Active | Not Active | Not Active | Not Active | Not Active | Not Active | – | – | Not Active | Not Active | Not Active | Not Active | Not Active | Not Active | Not Active | Not Active | Not Active | Not Active | Not Active | Not Active | IC50 ([4]; read-out: IC50): 1130 nM; Ki ([4]; read-out: Ki): 592 nM; IC50 ([5]; read-out: IC50): 1560 nM; Ki [5]: 655 nM |
